Measured values taken from patent US4159328A, “Tetrahydro-1,3,5-thiadiazin-4-one derivative” (Nihon Nohyaku Co., Ltd., priority 1977, dated 1979).
Where two headings read alike, the source gives them in different places.

Tests used:
[1] = tested on: larvae of diamond-back moth (Plutilla xylostella Linn'e); experiment: Test Example 10: insecticidal activity against larvae of diamond-back moth; type: in vivo; settings: 400 ppm, first-instar larvae, three days; 4320 min
From the text: Insecticidal activity against larvae of diamond-back moth (Plutilla xylostella Linn'e). Testing method: A test composition of 400 ppm concentration was sprayed over the pot-planted chinese cabbage in a greenhouse by means of a spray gun. After air-drying, the chinese cabbage was infested with 10 first-instar larvae of diamond-back moth and was left standing in the greenhouse. Three days after the treatment, the dead-and-survival was inspected to calculate the mortality (3-replication test).

[2] = tested on: larvae of brown planthopper (Nilaparvata lugens Stahl); experiment: Test Example 1: insecticidal activity against larvae of brown planthopper; type: in vivo; settings: 120 h, third-instar larvae, 25° C., 5 days after treatment
In short: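 Rice seedlings at 1.5-leaf stage were dipped for 30 s in a 400 ppm test composition, air-dried, and infested with third-instar N. lugens larvae. After holding at 25 °C, mortality was scored 5 or 7 days post-treatment from three replicates.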

[3] = tested on: larvae of white-backed planthopper (Sogatella furcifera Horvath); experiment: Test Example 2: insecticidal activity against larvae of white-backed planthopper; type: in vivo; settings: 168 h, 400 ppm, first-instar larvae, 25° C., seven days after treatment, read-out: Mortality
In short: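 Rice seedlings at 1.5-leaf stage were dipped 30 s in 400 ppm test composition, air-dried, and infested with five first-instar larvae. Tubes were held at 25°C, and mortality was scored at 7 days from triplicate tests.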

[4] = tested on: larvae of green rice leafhopper (Nephotettix cincticeps Uhler); experiment: Test Example 5: activity against larvae of green rice leafhopper; type: in vivo; settings: 168 h, 400 ppm, second-instar larvae, 25° C., seven days after treatment, read-out: Mortality
In short: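 Rice seedlings at 1.5 leaf age dipped 30 seconds in 400 ppm test composition, air-dried, then infested with five second-instar larvae. Kept at 25° C; mortality scored seven days after treatment, three replicates.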

[5] = tested on: larvae of house mosquito (Culex pipiens pallens Coquillett); experiment: Test Example 6: insecticidal activity to larvae of house mosquito; type: in vivo; settings: 120 h
In short: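 Twenty first-instar Culex pipiens pallens larvae placed with feed in test composition diluted in deionized water to 10 ppm. Kept at 25 °C, and mortality counted five days after treatment.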

[6] = tested on: two-spotted spider mite (Tetranychus urticae Koch); experiment: Test Example 3: activity to two-spotted spider mite; type: in vivo; settings: 120 h, 1,000 ppm, 5 days after treatment
From the text: Activity to two-spotted spider mite (Tetranychus urticae Koch).
Testing method: Two-spotted spider mites were set free on the pot-planted soybean in a greenhouse. On the next day, a test composition of 1,000 ppm concentration was sprayed over the soybean by means of a spray gun. Two days or five days after the treatment, dead-and-survival was inspected to calculate the mortality.

[7] = tested on: larvae of 28-spotted lady beetle (Epilachna vigintioctopunctana Fabricius); experiment: Test Example 8: insecticidal activity against larvae of 28-spotted lady beetle; type: in vivo; settings: 120 h
Description: Insecticidal activity against larvae of 28-spotted lady beetle (Epilachna vigintioctopunctana Fabricius).
Testing method: Leaflets of tomato grown in a greenhouse were dipped in a test composition of 100 ppm concentration for 30 seconds and after that the leaflets were dried by air. In a Petri dish covered on the bottom with a piece of filter paper, were introduced 1 ml of water and three treated tomato leaflets. After having been infested with seven second-instar larvae of 28-spotted lady beetle, the Petri dish was left standing in a constant temperature cabinet at 25° C. Five days after the treatment, the dead-and-survival was inspected to calculate the mortality (2-replication test).

[8] = tested on: larvae of bug. (Togo hemipterus Scott); experiment: Test Example 9: insecticidal activity against larvae of bug; type: in vivo; settings: 120 h, 10 ppm, first-instar larvae, 25° C., five days, read-out: Mortality
Description: Insecticidal activity against larvae of bug. (Togo hemipterus Scott).
Test method: Into a glass tube (1.6 cm in internal diameter and 9 cm in length), was added 1 ml of a test composition in 10 ppm concentration just to moisten the absorbent cotton. Five rice seeds and five first-instar larvae were introduced into the glass tube and the tube end was covered with a piece of Japanese paper. The glass tube was kept in a constant temperature cabinet at 25° C. Five days after treatment, the dead-and-survival was inspected to calculate the mortality (3-replication test).

mammalian acute toxicity = settings: mouse, in vivo, mice, male
Description: For example, 2-t-butylimino-3-isopropyl-5-phenyltetrahydro-1,3,5-thiadiazin-4-one (compound No. 145) and 2-t-butylimino-3-isopropyl-5-p-tolyltetrahydro-1,3,5-thiadiazin-4-one (compound No. 318) have LD50 (mice, male) of 10,000 mg/kg or higher. Many other compounds of this invention have LD50 (mice, male) of 5,000 mg/kg or higher.

[9] = tested on: 5th-instar larvae of brown planthopper; experiment: mortality in 7 days after spraying on 5th-instar larvae of brown planthopper; type: in vivo; settings: Nilaparvata lugens, 168 h
[10] = tested on: cirrus red mite (Panonychus citri McGregor); experiment: Test Example 4: activity to citrus red mite (Rothamstead method); type: in vivo; design: concentration or dose not given beside the values; settings: two days after treatment, 25° C.; 2880 min
Description: Activity to cirrus red mite (Panonychus citri McGregor).
Testing method: The test was performed by Rothamstead method. A test composition was sprayed by means of a spray gun over grapefruit leaves infested with citrus red mites. After air-drying the grapefruit was left standing in a constant temperature cabinet at 25° C. Two days after the treatment, the number of survived mites was counted to calculate the mortality.

[11] = tested on: adult rust-red-flour beetle (Tribolium castaneum Herbst); experiment: Test Example 7: insecticidal activity to adult rust-red-flour beetle; type: in vivo
Description: Insecticidal activity to adult rust-red-flour beetle (Tribolium castaneum Herbst).
Testing method: Into a 9-cm Petri dish covered on the bottom with a piece of filter paper, was introduced 7 ml of a test composition of 400 ppm concentration. Ten adult rust-red flour beetles were released in the Petri dish and left standing in a constant temperature cabinet at 25° C. After 24 hours, the dead-and-survival was inspected to calculate the mortality.

[12] = 400 ppm, adults, 25° C., 24 hours, read-out: Mortality

SMILES | Mortality [1] [%] | mortality at 400 ppm [2] [%] | mortality at 10 ppm [5] [%] | mortality at 1000 ppm [6] [%] | further results
CC(C)(C)N=C1SCN(c2ccc(Cl)cc2)C(=O)N1C1CCCCC1 [Compound 208] | 80 |  |  |  | 
CCCN1C(=O)N(c2cccc(Cl)c2)CSC1=NC(C)(C)C [Compound 232] | 70 | 70 |  |  | 
CC(C)N1C(=O)N(c2cccc(Cl)c2)CSC1=NC1CCCCC1 [Compound 230] | 100 |  |  |  | 
Cc1cccc(N2CSC(=NC(C)C)N(Cc3ccccc3)C2=O)c1 [Compound 329] | 100 |  |  |  | 
CCc1ccc(N2CSC(=NC(C)(C)C)N(C(C)C)C2=O)cc1 [Compound 333, 2-t-butylimino-3-isopropyl-5-(p-ethylphenyl)-tetrahydro-1,3,5-thiadiazin-4-one] | 100 | 100 | 100 |  | mortality at 400 ppm [3]: 100%; mortality at 400 ppm [4]: 100%
CCN=C1SCN(c2cccc(C)c2)C(=O)N1CC [Compound 324] | 100 | 100 |  |  | 
CCC(C)N=C1SCN(c2cccc(C)c2)C(=O)N1C(C)CC (stereo not drawn) [Compound 327] | 100 | 100 | 90 | 100 | mortality at 400 ppm [3]: 100%; mortality at 400 ppm [4]: 100%; mortality at 100 ppm [7]: 100%
CC(C)N=C1SCN(c2ccccc2)C(=O)N1C(C)C [Compound 144, 2-Isopropylimino-3-isopropyl-5-phenyltetrahydro-1,3,5-thiadiazin-4-one] |  |  | 100 |  | mortality at 400 ppm [3]: 100%; mortality at 400 ppm [4]: 100%; mortality at 100 ppm [7]: 100%; mortality at 10 ppm [8]: 100%
CCC(C)N1C(=O)N(c2ccccc2)CSC1=NC(C)(C)C (stereo not drawn) [Compound 152] |  | 100 | 100 |  | mortality at 400 ppm [3]: 100%; mortality at 400 ppm [4]: 100%; mortality at 100 ppm [7]: 100%; mortality at 10 ppm [8]: 100%
Cc1ccc(N2CSC(=NC(C)(C)C)N(C(C)C)C2=O)cc1 [Compound 318, 2-t-Butylimino-3-isopropyl-5-(p-tolyl)-tetrahydro-1,3,5-thiadiazin-4-one] |  | 100 | 90 | 100 | mortality at 400 ppm [3]: 100%; mortality at 400 ppm [4]: 100%; mortality at 100 ppm [7]: 100%; LD50 (mammalian acute toxicity): ≥ 10000 mg/kg; mortality at 100 ppm ([9]; 100 ppm, 5th-instar larvae, 7 days): 100%
C=CCN1C(=O)N(c2cccc(Cl)c2)CSC1=NCc1ccccc1 [Compound 219] | 80 | 100 |  | 70 | Mortality [10]: 100%; mortality at 400 ppm ([11]; 24 h): 100%
COCCN1C(=O)N(c2ccc(Cl)cc2)CSC1=NC(C)C [Compound 207] | 100 |  |  |  | 
CC(C)N=C1SCN(c2ccc([N+](=O)[O-])cc2[N+](=O)[O-])C(=O)N1C(C)C [Compound 366] | 100 |  |  |  | 
CC(C)N=C1SCN(c2ccccc2)C(=O)N1C [Compound 118, 2-Isopropylimino-3-methyl-5-phenyl-tetrahydro-1,3,5-thiadiazin-4-one] |  |  |  |  | Mortality [10]: 100%; mortality at 10 ppm [8]: 100%
Cc1cccc(N2CSC(=NC(C)(C)C)N(C(C)C)C2=O)c1 [Compound 326] | 100 | 100 | 100 |  | mortality at 400 ppm [3]: 100%; mortality at 400 ppm [4]: 100%; mortality at 100 ppm [7]: 100%
CCN1C(=O)N(c2ccccc2)CSC1=NC(C)(C)C [Compound 131, 2-t-Butylimino-3-ethyl-5-phenyl-tetrahydro-1,3,5-thiadiazin-4-one] |  | 100 | 100 |  | Mortality [10]: 100%; mortality at 400 ppm [4]: 100%; mortality at 100 ppm [7]: 100%; mortality at 10 ppm [8]: 100%
CCCCN1C(=O)N(c2cccc(Cl)c2)CSC1=NC(C)(C)C [Compound 236] | 100 | 80 |  |  | 
CCN1C(=O)N(c2cccc(Cl)c2)CSC1=NC(C)(C)C [Compound 216, 2-t-Butylimino-3-ethyl-5-(m-chlorophenyl)-tetrahydro-1,3,5-thiadiazin-4-one] |  | 100 |  | 70 | mortality at 400 ppm [11, 12]: 100%; mortality at 10 ppm [8]: 100%
CCc1ccc(N2CSC(=NC)N(C)C2=O)cc1 [Compound 331, 2-methylimino-3-methyl-5-(p-ethylphenyl)-tetrahydro-1,3,5-thiadiazin-4-one] | 100 |  |  |  | 
CNC(=O)Oc1cccc2ccccc12 [NAC, 1-naphthyl N-methylcarbamate, reference compound] |  |  |  |  | mortality at 200 ppm ([9]; read-out: mortality in 7 days after spraying): 30%
CN=C1SCN(c2cccc(Cl)c2)C(=O)N1C [Compound 213] |  | 100 | 100 | 100 | mortality at 400 ppm [11, 12]: 100%
CCCN1C(=O)N(c2ccccc2)CSC1=NC(C)C [Compound 135] |  | 100 | 100 |  | Mortality [10]: 100%; mortality at 100 ppm [7]: 100%; mortality at 10 ppm [8]: 100%
C=CCN1C(=O)N(c2cccc(Cl)c2)CSC1=NC(C)(C)C [Compound 218] |  | 100 | 100 | 100 | Mortality [10]: 100%; mortality at 400 ppm [11, 12]: 100%
CC(C)N1C(=O)N(c2cccc(Cl)c2)CSC1=NC(C)(C)CC(C)(C)C [Compound 222] |  | 100 |  | 80 | mortality at 400 ppm [11, 12]: 100%; mortality at 10 ppm [8]: 100%
C=CCN1C(=O)N(c2cccc(Cl)c2)CSC1=NC(C)C [Compound 217, 2-Isopropylimino-3-allyl-5-(m-chlorophenyl)-tetrahydro-1,3,5-thiadiazin-4-one] |  | 100 |  | 100 | mortality at 400 ppm [11, 12]: 100%; mortality at 10 ppm [8]: 100%
CC(C)CN1C(=O)N(c2cccc(Cl)c2)CSC1=NC(C)(C)C [Compound 223] |  | 100 | 100 | 70 | mortality at 400 ppm [11, 12]: 100%
CCC(C)N=C1SCN(c2cccc(Cl)c2)C(=O)N1C(C)CC (stereo not drawn) [Compound 224] |  | 100 | 100 | 100 | mortality at 400 ppm [3]: 100%; mortality at 400 ppm [4]: 100%; mortality at 400 ppm [11, 12]: 100%
